Reference: US4105768A, “Hypotensive substituted 1,2,4-triazoles” (priority 1973, dated 1978)
Where two headings read alike, the source gives them in different places.

What was measured:
[1] = test system: spontaneously hypertensive rats of the SHR/N strain; test: Antihypertensive effect in spontaneously hypertensive rats, oral; assay type: in vivo; conditions: Rattus norvegicus, 3 h; three consecutive daily oral doses; measured before and three hours after administration; unanesthetized SHR/N rats; read-out: effective antihypertensive dose, defined as the dose which reduced the mean arterial blood pressure more than 30 mm Hg
Experimental: The antihypertensive effects of the hydrochloride salt of the compound of the invention with the designation FLA 486 having the formula [drawing 25] have been compared with those of FLA 136 with the formula [drawing 26] in spontaneously hypertensive rats of the SHR/N strain (Mollegaard Hansens Avlslaboratorier A/S, Denmark). The animals were prepared for measurements of the arterial blood pressure through a catheter implanted into the abdominal aorta and exteriorized at the base of the neck. Groups of two rats were given three consecutive daily oral doses of the test compounds. Measurements were performed before and three hours after administration to the unanesthetized animal. The effective antihypertensive dose of FLA 486, defined as the dose which reduced the mean arterial blood pressure more than 30 mm Hg was 5-10 mg/kg. The corresponding value for FLA 136 was 5-10 mg/kg.

[2] = Acute toxicity in mice (LD50 i.p.); conditions: mouse, in vivo, ip
mice = test: Effect on the spontaneous motor activity of mice; assay type: in vivo, mouse; conditions: i.p., mice; compared to Wy-8678
Experimental: (§1) The effect on the spontaneous motor activity was tested in mice. Groups of six animals were given the test compounds intraperitoneally one and three hours before test. The animals were placed individually in an activity meter and the activity was recorded for ten minutes. The dose which reduced the spontaneous motor activity to 50 percent of that of control mice was calculated.

[3] = Effect on the spontaneous motor activity of mice; assay type: in vivo, mouse; conditions: mouse, in vivo, ip, read-out: Intraperitoneal dose which reduced the spontaneous motor activity of mice to 50 % of control values; for ED50 at 1 h: measurements one hour after administration; for ED50 at 3 h: measurements three hours after administration
Experimental: as §1

anaesthetized rats = assay type: in vivo, rat
renal hypertensive rats = test: Antihypertensive effect (mean arterial blood pressure) in unanaesthetized renal hypertensive rats, oral; assay type: in vivo, rat; conditions: for Minimum daily oral dose with antihypertensive effects defined as the dose which reduced the mean arterial blood pressure more than 15 mm Hg in unanaesthetized renal hypertensive rats: three consecutive daily oral doses, measured before and three hours after administration
Experimental: The antihypertensive effects were tested in rats in which high blood pressure had been produced by removal of one kidney and restricting the blood flow to the remaining one two months before the experiments. The animals were prepared for measurements of the arterial blood pressure through a catheter implanted into the abdonimal aorta and exteriorized at the base of the neck. Groups of two rats were given three consecutive daily oral doses of the test compounds from the scale: 2.5, 5, 10, 20, and 40 mg/kg. Measurements were performed before and three hours after administration to the unanaesthetized animal. The minimum daily oral dose with antihypertensive effect was defined as the dose which reduced the mean arterial blood pressure more than 15 mm Hg.

| SMILES | minimal effective dose [1] [mg/kg] | LD50 [2] [mg/kg] | sedative effects (in words) (mice) | ED50 at 1 h [3] [mg/kg] | ED50 at 3 h [3] [mg/kg] | initial rise in blood pressure (anaesthetized rats; rat, in vivo, iv, 40 mg/kg) | antihypertensive effect (in words) (renal hypertensive rats; oral, compared with Wy-8678) | Minimum daily oral dose with antihypertensive effects defined as the dose which reduced the mean arterial blood pressure more than 15 mm Hg in unanaesthetized renal hypertensive rats (renal hypertensive rats) [mg/kg] | initial rise in blood pressure (anaesthetized rats; intravenous, consecutive increasing doses, anaesthetized rats, highest dose tested of test compound 40 mg/kg) |
| --- | --- | --- | --- | --- | --- | --- | --- | --- | --- |
| Cl.Nn1cnnc1NN=Cc1c(Cl)cccc1Cl [FLA 136, 4-Amino-3-(2,6-dichlorobenzylidenehydrazino)-1,2,4-triazole hydrochloride] | 5 to 10 | 340 | lack of sedative effects | 90 | 170 | did not produce an initial rise in blood pressure even at 40 mg/kg | of the same degree as that of one of the present known most active hypotensive compounds | 2.5 to 5 |  |
| NC(N)=NN=Cc1c(Cl)cccc1Cl [Wy-8678, reference compound] |  | 70 |  | 3 | 3 |  |  | 2.5 | produced a large increase in arterial pressure even at doses as low as 0.01 mg/kg |
| CNn1cnnc1NN=Cc1c(Cl)cccc1Cl [FLA 486] | 5 to 10 |  |  |  |  |  |  |  |  |
